# Experimental data from US10086001B2, “Composition for the treatment of cystic fibrosis” (SciPharm SàRL, priority 2009, dated 2018).
# How the values were obtained:
# [1] = tested on: IB3-1 cells; assay: Accumulation of [3H]cAMP in IB3-1 cells; format: cell-based, human; details: for accumulation of cAMP: bronchoepithelial IB3-1 cells
# Description: IB3-1 cells were plated on 6 well-plates (0.2*10^6 cells/well) in complete growth medium (LHC-8+5% FCS). The following day, the adenine nucleotide pool was metabolically labelled by incubation with [3H]adenine (1 μCi/well) in Dulbecco's Modified Eagle Medium (DMEM) containing adenosine deaminase (1 unit/ml) for 4 h. Cyclc AMP formation was stimulated by 20 μM forskolin or the PGI2-analogue treprostinil (Remodulin®). The assay was performed in triplicates. The formation of [^3H]cAMP was determined by sequential chromatography on Dowex 50WX-4 and neutral alumina columns followed by liquid scintillation counting of the eluate.
# [2] = tested on: human GFP-tagged wild type CFTR; assay: Whole cell patch clamp, activation of Cl-current in IB3-1 cells transiently expressing GFP-tagged wild type CFTR; format: cell-based
# Description: The whole cell patch clamp technique was used for current recordings performed at 22±1.5° C. using an Axoclamp 200B patch clamp amplifier (Axon Instruments). Pipettes had resistances between 1 and 2 MΩ when filled with the recording pipette solution (composition: 110 mM CsCl, 5 mM EGTA, 2 mM MgCl2, 1 mM K2.ATP, 10 mM Hepes, pH adjusted to 7.2 with CsOH). Voltage-clamp protocols and data acquisition were performed with pclamp 6.0 software (Axon Instruments). Data were low-pass filtered at 2 kHz (−3 dB) and digitized at 10-20 kHz. Cells were continuously superfused with external solution (composition: 145 mM NaCl, 4.5 mM KCl, 2 mM CaCl2, 1 mM MgCl2, 5 mM glucose, 10 mM Hepes, pH adjusted to 7.4 with NaOH). When indicated, the external solution contained Treprostinil (10 μM) or forskolin (5 μM), switching between solutions was achieved by electronically controlled pressure valves.
# I3B-1 cells were grown on dishes (Nunc, 3.5 cm diameter) covered with fibronectin (10 μg/mL) rat collagen 1 (30 μg/mL) and BSA 10 μg/mL) in LHC-8 medium (Gibco) containing 5% fetal calf serum (FCS). Cells were transiently transfected with a plasmid driving the expression of human GFP-tagged wild type CFTR by using Lipofectamine Plus® (Invitrogen) according to the instructions of the manufacturer.
# Representative current amplitudes recorded in the whole cell patch clamp configuration at +60 mV. A transiently transfected I3B-1 cell expressing GFP-tagged wild type CFTR was selected under fluorescent light and clamped to a holding potential at −40 mV. Depolarization was induced by a voltage step to +60 mV for 50 ms and the current amplitude was recorded. Wash-in of Treprostinil (10 μM final concentration, TP) was initiated at the time point 50 s and terminated at 125 s. Forskolin was washed in at 275 s and was removed at 375 s.
Structure (SMILES),accumulation of cAMP [1],"EC50 ([1]; Homo sapiens, IB3-1 cells, [3H]adenine labelling, FIG. 1, read-out: Half-maximum stimulation of cAMP accumulation)","activation of the current induced by a depolarization from −40 mV holding potential to +60 mV ([2]; 10 μM Treprostinil, IB3-1 cell expressing CFTR-wt, FIG. 2)","time for current to decay to basal after washout ([2]; 10 μM Treprostinil, whole cell patch clamp at +60 mV)","delay of response (maximum effect after wash-in, hysteresis in turn-off) ([2]; Treprostinil 10 μM or forskolin 5 μM, whole cell patch clamp)"
O=C1CN2Cc3c(ccc(Cl)c3Cl)N=C2N1 [Anagrelide],did not induce any accumulation cAMP,–,–,–,–
"CCCCC[C@H](O)CC[C@@H]1[C@H]2Cc3cccc(OCC(=O)[O-])c3C[C@H]2C[C@H]1O.[Na+] [Treprostinil, (1R,2R,3aS,9aS)-[[2,3,3a,4,9,9a-hexahydro-2-hydroxy-1-[(3S)-3-hydroxyoctyl]-1H-benz[f]inden-5-yl]oxy]acetic acid monosodium salt]",concentration-dependent accumulation of cAMP,0.3 to 1 µM,robust activation of the current,~100 s,only observed several s after wash-in
